System: winter wheat (Vershin variety)
Experiment: Winter wheat seed treatment with BHMPA salts: germinating power (length and mass of roots and sprouts)
Format: in vivo
Protocol: Experimental versions—soaking seeds in BHMPA solutions and solutions of BHMPA Ca, Mg, Na, Co, Mn, Cu, and Zn salts at 1·10^−6-1·10^−12% concentrations (doses). The studies were conducted in laboratory in Petri dishes; seed bed—two layers of filter paper. 50 seeds soaked in water (control) and in the solutions of the tested compounds (experimental) were placed into each dish. Wheat, corn, and rice seeds were exposed for one hour.
Seed germination energy and rate were calculated in percent as an arithmetic mean of the four experimental results (germination energy on the 4th day, wheat germination on the 8th day, rice and corn germination—on the 7th day). Germination was determined based on the germinating power indicators (length of the roots and sprouts and their wet and dry mass per 100 shoots).
The effect of pre-sowing seed treatment with the claimed BHMPA salts of biogenic metals was studied on winter wheat (Vershin variety), corn (Krasnodar 385 MV variety), and rice (Diamant variety).
The above data describe the seed viability only at the initial stage of germination, while the germination ability at the later stage of germination is defined by the initial germinating power. The method for the determination of the germinating power comprises measuring the height of the sprouts and primary roots, as well as the biomass and the dry mass thereof per 100 seedlings. [M. A. Kartuzova. Initial Germinating Power as Method of Biological Assessment of Seed Quality. Selection and Seed Farming, #2, 1953].

[1] = all the experiments (1·10^−6% to 1·10^−12%)
[2] = comparative study, 1·10^−12% solution

With `O=P([O-])(CO)CO.O=P([O-])(CO)CO.[Ca+2]` [Ca-salt, Calcium BHMPA Salt] as the molecule, how does the Length, root (1·10^−6% solution) read?
Its Length, root is 7.1 cm.

And the “Length, root, + % to control” value (1·10^−6% solution)?
The value was 27%.

What about the Length, sprout (1·10^−6% solution) of the same molecule?
The Length, sprout was 6.9 cm.

And the “Length, sprout, + % to control” value (1·10^−6% solution)?
The value was 19%.

And the Mass, dry, root (1·10^−6% solution)?
Its Mass, dry, root is 0.45 g/100 plantlings.

And the “Mass, dry, root, + % to control” value (1·10^−6% solution)?
Its value is 41%.

And the Mass, dry, sprout (1·10^−6% solution)?
Its Mass, dry, sprout is 0.47 g/100 plantlings.

And the “Mass, dry, sprout, + % to control” value (1·10^−6% solution)?
Its value is 9%.

What about the Mass, wet, root (1·10^−6% solution) of the same molecule?
Its Mass, wet, root is 4.16 g/100 plantlings.

And the “Mass, wet, root, + % to control” value (1·10^−6% solution)?
The value was 12%.

What about the Mass, wet, sprout (1·10^−6% solution) of the same molecule?
The Mass, wet, sprout was 5.32 g/100 plantlings.

What about the “Mass, wet, sprout, + % to control” value (1·10^−6% solution) of the same molecule?
Its value is 5%.

What about the Length, root (1·10^−7% solution) of the same molecule?
Its Length, root is 7.4 cm.

What about the “Length, root, + % to control” value (1·10^−7% solution) of the same molecule?
The value was 34%.

And the Length, sprout (1·10^−7% solution)?
Its Length, sprout is 7.4 cm.

What about the Mass, dry, root (1·10^−7% solution) of the same molecule?
Its Mass, dry, root is 0.47 g/100 plantlings.

And the “Mass, dry, root, + % to control” value (1·10^−7% solution)?
The value was 47%.

What about the Mass, dry, sprout (1·10^−7% solution) of the same molecule?
Its Mass, dry, sprout is 0.55 g/100 plantlings.

And the “Mass, dry, sprout, + % to control” value (1·10^−7% solution)?
The value was 30%.

What about the Mass, wet, root (1·10^−7% solution) of the same molecule?
The Mass, wet, root was 4.89 g/100 plantlings.

And the “Mass, wet, root, + % to control” value (1·10^−7% solution)?
Its value is 32%.

What about the Mass, wet, sprout (1·10^−7% solution) of the same molecule?
Its Mass, wet, sprout is 5.57 g/100 plantlings.

What about the “Mass, wet, sprout, + % to control” value (1·10^−7% solution) of the same molecule?
The value was 10%.

What about the Length, root (1·10^−8% solution) of the same molecule?
Its Length, root is 6.5 cm.

And the “Length, root, + % to control” value (1·10^−8% solution)?
The value was 18%.

What about the Length, sprout (1·10^−8% solution) of the same molecule?
Its Length, sprout is 6.4 cm.

And the “Length, sprout, + % to control” value (1·10^−8% solution)?
The value was 10%.

And the Mass, dry, root (1·10^−8% solution)?
Its Mass, dry, root is 0.39 g/100 plantlings.

What about the “Mass, dry, root, + % to control” value (1·10^−8% solution) of the same molecule?
The value was 22%.

And the Mass, dry, sprout (1·10^−8% solution)?
The Mass, dry, sprout was 0.45 g/100 plantlings.

And the “Mass, dry, sprout, + % to control” value (1·10^−8% solution)?
The value was 5%.

And the Mass, wet, root (1·10^−8% solution)?
Its Mass, wet, root is 4.08 g/100 plantlings.

And the “Mass, wet, root, + % to control” value (1·10^−8% solution)?
Its value is 10%.

What about the Mass, wet, sprout (1·10^−8% solution) of the same molecule?
Its Mass, wet, sprout is 5.32 g/100 plantlings.

And the “Mass, wet, sprout, + % to control” value (1·10^−8% solution)?
Its value is 5%.

What about the Length, root (1·10^−9% solution) of the same molecule?
The Length, root was 6.5 cm.

What about the “Length, root, + % to control” value (1·10^−9% solution) of the same molecule?
Its value is 18%.

What about the Length, sprout (1·10^−9% solution) of the same molecule?
The Length, sprout was 6.5 cm.

What about the “Length, sprout, + % to control” value (1·10^−9% solution) of the same molecule?
The value was 12%.

What about the Mass, dry, root (1·10^−9% solution) of the same molecule?
The Mass, dry, root was 0.41 g/100 plantlings.

What about the “Mass, dry, root, + % to control” value (1·10^−9% solution) of the same molecule?
Its value is 28%.

What about the Mass, dry, sprout (1·10^−9% solution) of the same molecule?
The Mass, dry, sprout was 0.48 g/100 plantlings.

What about the “Mass, dry, sprout, + % to control” value (1·10^−9% solution) of the same molecule?
Its value is 12%.

What about the Mass, wet, root (1·10^−9% solution) of the same molecule?
The Mass, wet, root was 4.20 g/100 plantlings.

What about the “Mass, wet, root, + % to control” value (1·10^−9% solution) of the same molecule?
Its value is 13%.

And the Mass, wet, sprout (1·10^−9% solution)?
Its Mass, wet, sprout is 5.36 g/100 plantlings.

What about the “Mass, wet, sprout, + % to control” value (1·10^−9% solution) of the same molecule?
Its value is 5.5%.

And the Length, root (1·10^−10% solution)?
The Length, root was 6.6 cm.

And the “Length, root, + % to control” value (1·10^−10% solution)?
The value was 20%.

What about the Length, sprout (1·10^−10% solution) of the same molecule?
Its Length, sprout is 6.5 cm.

What about the “Length, sprout, + % to control” value (1·10^−10% solution) of the same molecule?
Its value is 12%.

What about the Mass, dry, root (1·10^−10% solution) of the same molecule?
The Mass, dry, root was 0.45 g/100 plantlings.

What about the “Mass, dry, root, + % to control” value (1·10^−10% solution) of the same molecule?
The value was 41%.

What about the Mass, dry, sprout (1·10^−10% solution) of the same molecule?
Its Mass, dry, sprout is 0.53 g/100 plantlings.

And the “Mass, dry, sprout, + % to control” value (1·10^−10% solution)?
Its value is 23%.

What about the Mass, wet, root (1·10^−10% solution) of the same molecule?
The Mass, wet, root was 4.34 g/100 plantlings.

What about the “Mass, wet, root, + % to control” value (1·10^−10% solution) of the same molecule?
The value was 17%.

And the Mass, wet, sprout (1·10^−10% solution)?
Its Mass, wet, sprout is 5.41 g/100 plantlings.

What about the “Mass, wet, sprout, + % to control” value (1·10^−10% solution) of the same molecule?
The value was 6.5%.

What about the Length, root (1·10^−11% solution) of the same molecule?
Its Length, root is 7.2 cm.

What about the “Length, root, + % to control” value (1·10^−11% solution) of the same molecule?
Its value is 31%.

What about the Length, sprout (1·10^−11% solution) of the same molecule?
The Length, sprout was 6.9 cm.

And the “Length, sprout, + % to control” value (1·10^−11% solution)?
Its value is 19%.

What about the Mass, dry, root (1·10^−11% solution) of the same molecule?
Its Mass, dry, root is 0.46 g/100 plantlings.

What about the “Mass, dry, root, + % to control” value (1·10^−11% solution) of the same molecule?
Its value is 44%.

And the Mass, dry, sprout (1·10^−11% solution)?
The Mass, dry, sprout was 0.54 g/100 plantlings.

And the “Mass, dry, sprout, + % to control” value (1·10^−11% solution)?
The value was 25.5%.

What about the Mass, wet, root (1·10^−11% solution) of the same molecule?
Its Mass, wet, root is 4.70 g/100 plantlings.

And the “Mass, wet, root, + % to control” value (1·10^−11% solution)?
Its value is 27%.

What about the Mass, wet, sprout (1·10^−11% solution) of the same molecule?
Its Mass, wet, sprout is 5.50 g/100 plantlings.

And the “Mass, wet, sprout, + % to control” value (1·10^−11% solution)?
The value was 8%.

And the Length, root (1·10^−12% solution)?
The Length, root was 7.4 cm.

What about the “Length, root, + % to control” value (1·10^−12% solution) of the same molecule?
Its value is 34%.

And the Length, sprout (1·10^−12% solution)?
The Length, sprout was 7.9 cm.

And the “Length, sprout, + % to control” value (1·10^−12% solution)?
Its value is 36%.

What about the Mass, dry, root (1·10^−12% solution) of the same molecule?
The Mass, dry, root was 0.48 g/100 plantlings.

What about the “Mass, dry, root, + % to control” value (1·10^−12% solution) of the same molecule?
Its value is 50%.

What about the Mass, dry, sprout (1·10^−12% solution) of the same molecule?
Its Mass, dry, sprout is 0.59 g/100 plantlings.

And the “Mass, dry, sprout, + % to control” value (1·10^−12% solution)?
The value was 37%.

And the Mass, wet, root (1·10^−12% solution)?
Its Mass, wet, root is 5.19 g/100 plantlings.

What about the “Mass, wet, root, + % to control” value (1·10^−12% solution) of the same molecule?
Its value is 40%.

And the Mass, wet, sprout (1·10^−12% solution)?
Its Mass, wet, sprout is 6.55 g/100 plantlings.

And the “Mass, wet, sprout, + % to control” value (1·10^−12% solution)?
Its value is 29%.

What about the “increase in mass of sprouts” value [1] of the same molecule?
Its value is 5%-50%.

What about the “increase in size of sprouts” value [1] of the same molecule?
Its value is 10%-36%.

And the Length, root [2]?
The Length, root was 9.7 cm.

What about the “Length, root, + % to control” value [2] of the same molecule?
Its value is 11%.

What about the Length, sprout [2] of the same molecule?
The Length, sprout was 6.4 cm.

And the “Length, sprout, + % to control” value [2]?
The value was 3%.

And the Mass, dry, root [2]?
Its Mass, dry, root is 0.66 g/100 plantlings.

What about the “Mass, dry, root, + % to control” value [2] of the same molecule?
The value was 6%.

What about the Mass, dry, sprout [2] of the same molecule?
The Mass, dry, sprout was 0.54 g/100 plantlings.

What about the “Mass, dry, sprout, + % to control” value [2] of the same molecule?
The value was 6%.

And the Mass, wet, root [2]?
Its Mass, wet, root is 5.03 g/100 plantlings.

And the “Mass, wet, root, + % to control” value [2]?
The value was 40%.

What about the Mass, wet, sprout [2] of the same molecule?
The Mass, wet, sprout was 4.88 g/100 plantlings.

What about the “Mass, wet, sprout, + % to control” value [2] of the same molecule?
Its value is 23%.

From US10781224B2, “Bis(oxymethyl)phosphinic acid and biogenic metal salts thereof as regulators of plant growth and development” (priority 2016, dated 2020)
